Results as given in PMC6100082, “Pyridine-Ureas as Potential Anticancer Agents: Synthesis and In Vitro Biological Evaluation” (Molecules : A Journal of Synthetic Chemistry and Natural …, 2018).

Columns and labels:
COLO 205 = assay: NCI one-dose SRB assay (Colon Cancer); assay type: cell-based, human; details: for Growth Percent: COLO 205, 1.00E-5 Molar; for inhibition at 10 µM: Homo sapiens, COLO 205, 10 μM, read-out: Percentage growth inhibition (GI%)
Experimental: (§1) The structures of all the newly prepared pyridine-ureas 8a–n were submitted to the National Cancer Institute (NCI) Developmental Therapeutic Program. Eight compounds 8b, 8d, 8e, 8i, 8j and 8l–n were selected to be examined for their in vitro growth inhibitory activity. The anticancer assays were carried out according to the protocol of the Drug Evaluation Branch, NCI, Bethesda. The selected pyridine-ureas were tested at one dose primary anticancer assay against a panel of approximately 58 cancer lines (concentration 10^−5 M). The tested human cancer cell lines emerged from nine different cancer subtypes: leukemia, colon, melanoma, ovarian, lung, CNS, renal, breast and prostate cancers. The sulforhodamine B (SRB) protein assay was adopted to estimate the cell viability and growth. The results were reported as mean-graph of the percentage growth of the treated cells, and presented as percentage growth inhibition (GI%) caused by the test compounds (Table 2).
(§2) The anticancer assays were performed in accordance with the protocol of the Drug Evaluation Branch, NCI, Bethesda. A 48 h drug exposure protocol was used and sulforhodamine B (SRB) protein assay was applied to estimate the cell viability and growth, as reported earlier.

HCT-116 = assay: NCI one-dose SRB assay (Colon Cancer); assay type: cell-based, human; details: for Growth Percent: HCT-116, 1.00E-5 Molar; for inhibition at 10 µM: Homo sapiens, HCT-116, 10 μM, read-out: Percentage growth inhibition (GI%)
Experimental: as §1, §2

HCT-15 = assay: NCI one-dose SRB assay (Colon Cancer); assay type: cell-based, human; details: for Growth Percent: HCT-15, 1.00E-5 Molar; for inhibition at 10 µM: Homo sapiens, HCT-15, 10 μM, read-out: Percentage growth inhibition (GI%)
Experimental: as §1, §2

KM12 = assay: NCI one-dose SRB assay (Colon Cancer); assay type: cell-based, human; details: for inhibition at 10 µM: Homo sapiens, KM12, 10 μM, read-out: Percentage growth inhibition (GI%); for Growth Percent: KM12, 1.00E-5 Molar
Experimental: as §1, §2

HCC-2998 = assay: NCI one-dose SRB assay (Colon Cancer); assay type: cell-based, human; details: for Growth Percent: HCC-2998, 1.00E-5 Molar; for inhibition at 10 µM: Homo sapiens, HCC-2998, 10 μM, read-out: Percentage growth inhibition (GI%)
Experimental: as §1, §2

HT29 = assay: NCI one-dose SRB assay (Colon Cancer); assay type: cell-based, human; details: for Growth Percent: HT29, 1.00E-5 Molar; for inhibition at 10 µM: Homo sapiens, HT-29, HT29, 10 μM, read-out: Percentage growth inhibition (GI%)
Experimental: as §1, §2

SW-620 = assay: NCI one-dose SRB assay (Colon Cancer); assay type: cell-based, human; details: for inhibition at 10 µM: Homo sapiens, SW-620, 10 μM, read-out: Percentage growth inhibition (GI%); for Growth Percent: SW-620, 1.00E-5 Molar
Experimental: as §1, §2

NCI 58 cell line panel = assay: NCI one-dose SRB assay, whole panel / subpanel summary; assay type: cell-based, human; details: for inhibition at 10 µM: Homo sapiens, one dose, read-out: mean inhibition (mean % growth inhibition over NCI 58 cell line panel); for Mean Growth Percent: One Dose Mean Graph, 1.00E-5 Molar
Experimental: as §1, §2

SF-539 = assay: NCI one-dose SRB assay (CNS Cancer); assay type: cell-based, human; details: for inhibition at 10 µM: Homo sapiens, SF-539, 10 μM, read-out: Percentage growth inhibition (GI%); for Growth Percent: SF-539, 1.00E-5 Molar
Experimental: as §1, §2

SNB-75 = assay: NCI one-dose SRB assay (CNS Cancer); assay type: cell-based, human; details: for inhibition at 10 µM: Homo sapiens, SNB-75, 10 μM, read-out: Percentage growth inhibition (GI%); for Growth Percent: SNB-75, 1.00E-5 Molar
Experimental: as §1, §2

U251 = assay: NCI one-dose SRB assay (CNS Cancer); assay type: cell-based, human; details: for inhibition at 10 µM: Homo sapiens, U-251, U251, 10 μM, read-out: Percentage growth inhibition (GI%); for Growth Percent: U251, 1.00E-5 Molar
Experimental: as §1, §2

SF-295 = assay: NCI one-dose SRB assay (CNS Cancer); assay type: cell-based, human; details: for inhibition at 10 µM: Homo sapiens, SF-295, 10 μM, read-out: Percentage growth inhibition (GI%); for Growth Percent: SF-295, 1.00E-5 Molar
Experimental: as §1, §2

SNB-19 = assay: NCI one-dose SRB assay (CNS Cancer); assay type: cell-based, human; details: for inhibition at 10 µM: Homo sapiens, SNB-19, 10 μM, read-out: Percentage growth inhibition (GI%); for Growth Percent: SNB-19, 1.00E-5 Molar
Experimental: as §1, §2

BT-549 = assay: NCI one-dose SRB assay (Breast Cancer); assay type: cell-based, human; details: for Growth Percent: BT-549, 1.00E-5 Molar; for inhibition at 10 µM: Homo sapiens, BT-549, 10 μM, read-out: Percentage growth inhibition (GI%)
Experimental: as §1, §2

MCF7 = assay: NCI one-dose SRB assay (Breast Cancer); assay type: cell-based, human; details: for inhibition at 10 µM: Homo sapiens, MCF7, 10 μM, read-out: Percentage growth inhibition (GI%); for Growth Percent: MCF7, 1.00E-5 Molar
Experimental: as §1, §2

MDA-MB-231 = assay: NCI one-dose SRB assay (Breast Cancer); assay type: cell-based, human; details: for inhibition at 10 µM: Homo sapiens, MDA-MB-231, 10 μM, read-out: Percentage growth inhibition (GI%); for Growth Percent: MDA-MB-231/ATCC, 1.00E-5 Molar
Experimental: as §1, §2

T-47D = assay: NCI one-dose SRB assay (Breast Cancer); assay type: cell-based, human; details: for Growth Percent: 1.00E-5 Molar; for inhibition at 10 µM: Homo sapiens, T47D, read-out: Percentage growth inhibition (GI%)
Experimental: as §1, §2

MDA-MB-468 = assay: NCI one-dose SRB assay (Breast Cancer); assay type: cell-based, human; details: for inhibition at 10 µM: Homo sapiens, MDA-MB-468, 10 μM, read-out: Percentage growth inhibition (GI%); for Growth Percent: MDA-MB-468, 1.00E-5 Molar
Experimental: as §1, §2

HS 578T = assay: NCI one-dose SRB assay (Breast Cancer); assay type: cell-based, human; details: for Growth Percent: 1.00E-5 Molar; for inhibition at 10 µM: Homo sapiens, read-out: Percentage growth inhibition (GI%)
Experimental: as §1, §2

OVCAR-8 = assay: NCI one-dose SRB assay (Ovarian Cancer); assay type: cell-based, human; details: for inhibition at 10 µM: Homo sapiens, OVCAR-8, 10 μM, read-out: Percentage growth inhibition (GI%); for Growth Percent: OVCAR-8, 1.00E-5 Molar
Experimental: as §1, §2

SK-OV-3 = assay: NCI one-dose SRB assay (Ovarian Cancer); assay type: cell-based, human; details: for inhibition at 10 µM: Homo sapiens, SK-OV-3, 10 μM, read-out: Percentage growth inhibition (GI%); for Growth Percent: SK-OV-3, 1.00E-5 Molar
Experimental: as §1, §2

NCI/ADR-RES = assay: NCI one-dose SRB assay (Ovarian Cancer); assay type: cell-based, human; details: for Growth Percent: 1.00E-5 Molar; for inhibition at 10 µM: Homo sapiens, read-out: Percentage growth inhibition (GI%)
Experimental: as §1, §2

IGROV1 = assay: NCI one-dose SRB assay (Ovarian Cancer); assay type: cell-based, human; details: for inhibition at 10 µM: Homo sapiens, IGROV-1, IGROV1, 10 μM, read-out: Percentage growth inhibition (GI%); for Growth Percent: IGROV1, 1.00E-5 Molar
Experimental: as §1, §2

OVCAR-5 = assay: NCI one-dose SRB assay (Ovarian Cancer); assay type: cell-based, human; details: for inhibition at 10 µM: Homo sapiens, OVCAR-5, 10 μM, read-out: Percentage growth inhibition (GI%); for Growth Percent: OVCAR-5, 1.00E-5 Molar
Experimental: as §1, §2

OVCAR-4 = assay: NCI one-dose SRB assay (Ovarian Cancer); assay type: cell-based, human; details: for inhibition at 10 µM: Homo sapiens, OVCAR-4, 10 μM, read-out: Percentage growth inhibition (GI%); for Growth Percent: OVCAR-4, 1.00E-5 Molar
Experimental: as §1, §2

OVCAR-3 = assay: NCI one-dose SRB assay (Ovarian Cancer); assay type: cell-based, human; details: for inhibition at 10 µM: Homo sapiens, OVCAR-3, 10 μM, read-out: Percentage growth inhibition (GI%); for Growth Percent: OVCAR-3, 1.00E-5 Molar
Experimental: as §1, §2

## COc1ccc(-c2ccc(NC(=O)Nc3ccc(Cl)c(C(F)(F)F)c3)c(C)n2)cc1 [Compound 8e, 1-(4-Chloro-3-(trifluoromethyl)phenyl)-3-(6-(4-methoxyphenyl)-2-methylpyridin-3-yl)urea]
COLO 205
  Growth Percent: 80.09%
  inhibition at 10 µM: 20%
HCT-116
  Growth Percent: 23.73%
  inhibition at 10 µM: 77%
HCT-15
  Growth Percent: 37.80%
  inhibition at 10 µM: 63%
KM12
  inhibition at 10 µM: 63%
  Growth Percent: 37.36%
HCC-2998
  Growth Percent: 69.17%
  inhibition at 10 µM: 31%
HT29
  Growth Percent: 46.44%
  inhibition at 10 µM: 54%
SW-620
  inhibition at 10 µM: 33%
  Growth Percent: 67.04%
NCI 58 cell line panel
  inhibition at 10 µM: 49%
  Mean Growth Percent: 51.42%
other
  melting point: 195 to 197 °C
SF-539
  inhibition at 10 µM: 19%
  Growth Percent: 81.32%
SNB-75
  inhibition at 10 µM: 27%
  Growth Percent: 73.44%
U251
  inhibition at 10 µM: 67%
  Growth Percent: 33.63%
SF-295
  inhibition at 10 µM: 54%
  Growth Percent: 46.97%
SNB-19
  inhibition at 10 µM: 43%
  Growth Percent: 57.33%
BT-549
  Growth Percent: 66.19%
  inhibition at 10 µM: 34%
MCF7
  inhibition at 10 µM: 64%
  Growth Percent: 36.68%
MDA-MB-231
  inhibition at 10 µM: 15%
  Growth Percent: 85.04%
T-47D
  Growth Percent: 21.49%
  inhibition at 10 µM: 79%
MDA-MB-468
  inhibition at 10 µM: 62%
  Growth Percent: 38.52%
HS 578T
  Growth Percent: 76.98%
  inhibition at 10 µM: 24%
OVCAR-8
  inhibition at 10 µM: 43%
  Growth Percent: 57.40%
SK-OV-3
  inhibition at 10 µM: 32%
  Growth Percent: 68.11%
NCI/ADR-RES
  Growth Percent: 49.78%
  inhibition at 10 µM: 51%
IGROV1
  inhibition at 10 µM: 48%
  Growth Percent: 52.86%
OVCAR-5
  inhibition at 10 µM: 11%
  Growth Percent: 89.11%
OVCAR-4
  inhibition at 10 µM: 55%
  Growth Percent: 45.11%
OVCAR-3
  inhibition at 10 µM: 73%
  Growth Percent: 27.65%

## COc1ccc(-c2ccc(NC(=O)Nc3cccc(C(F)(F)F)c3)c(C)n2)cc1OC [Compound 8i, 1-(6-(3,4-Dimethoxyphenyl)-2-methylpyridin-3-yl)-3-(3-(trifluoromethyl)phenyl) Urea]
COLO 205
  Growth Percent: 88.09%
  inhibition at 10 µM: 12%
HCT-116
  Growth Percent: 17.63%
  inhibition at 10 µM: 83%
HCT-15
  Growth Percent: 48.77%
  inhibition at 10 µM: 52%
KM12
  inhibition at 10 µM: 34%
  Growth Percent: 66.00%
HCC-2998
  Growth Percent: 84.39%
  inhibition at 10 µM: 16%
HT29
  Growth Percent: 59.96%
  inhibition at 10 µM: 41%
SW-620
  inhibition at 10 µM: < 10%
  Growth Percent: 91.19%
NCI 58 cell line panel
  inhibition at 10 µM: 22 to 34%
  Mean Growth Percent: 67.33%
other
  melting point: 235 to 237 °C
SF-539
  inhibition at 10 µM: 23%
  Growth Percent: 77.24%
SNB-75
  inhibition at 10 µM: 34%
  Growth Percent: 66.71%
U251
  inhibition at 10 µM: 37%
  Growth Percent: 63.88%
SF-295
  inhibition at 10 µM: 35%
  Growth Percent: 65.28%
SNB-19
  inhibition at 10 µM: 22%
  Growth Percent: 78.84%
BT-549
  Growth Percent: 71.52%
  inhibition at 10 µM: 29%
MCF7
  inhibition at 10 µM: 38%
  Growth Percent: 62.46%
MDA-MB-231
  inhibition at 10 µM: 31%
  Growth Percent: 69.50%
T-47D
  Growth Percent: 53.57%
  inhibition at 10 µM: 47%
MDA-MB-468
  inhibition at 10 µM: 51%
  Growth Percent: 49.56%
HS 578T
  Growth Percent: 74.54%
  inhibition at 10 µM: 26%
OVCAR-8
  inhibition at 10 µM: 19%
  Growth Percent: 81.32%
SK-OV-3
  inhibition at 10 µM: < 10%
  Growth Percent: 101.37%
NCI/ADR-RES
  Growth Percent: 66.87%
  inhibition at 10 µM: 34%
IGROV1
  inhibition at 10 µM: < 10%
  Growth Percent: 91.46%
OVCAR-5
  inhibition at 10 µM: < 10%
  Growth Percent: 94.03%
OVCAR-4
  inhibition at 10 µM: 41%
  Growth Percent: 59.07%
OVCAR-3
  inhibition at 10 µM: 31%
  Growth Percent: 69.16%
